Data: publication PMC11190158, “Study on the design, synthesis, and activity of anti-tumor staple peptides targeting MDM2/MDMX” (Frontiers in Chemistry, 2024)
Positions of bridges follow the written chain, without caps; N, C: chain ends. Non-standard residues stand in square brackets, D forms with d. Residues, ends and D or L forms follow the SMILES beside them. S5 = C=CCCC[C@](C)(N)C(=O)O

Key:
[1] = test system: U87 MG; conditions: for IC50: 72 h; for concentration at which in vitro anti-tumor activity was exhibited: U87 MG tumor cells, CCK-8
[2] = circular dichroism; conditions: phosphate buffer (PB); pH 7.2; ns °C; 10-50 (printed mmol/L, probably uM)
[3] = test system: tumor cells; experiment: Cytotoxicity / cell viability assay (CCK-8), cell line not given; assay type: cell-based, human; conditions: for concentration at which in vitro anti-tumor activity was exhibited: compared to linear peptide M3-1, cell line not named
Protocol: Human colon cancer cell lines HCT116 p53^+/+, HCT116 p53^−/−, U87 MG, and U251 were maintained in McCoy’s 5A Medium supplemented with 10% heat-inactivated FCS and 1% penicillin–streptomycin at 37°C, 5% CO2, and under complete humidification conditions. The cells (3×10^3 cells/well) were inoculated in 96-well plates and treated with different concentrations of polypeptides for 72 h. The absorbance at 450 nm was then measured using the CCK-8 Kit, and the percentage of cell survival was calculated based on the ratio of the sample well to the reference well A450.

[4] = test system: U251; conditions: for IC50: 72 h; for concentration at which in vitro anti-tumor activity was exhibited: U251 tumor cells, CCK-8
[5] = test system: HCT116 p53^−/−; conditions: 72 h
[6] = Circular dichroism, degree of helicity; assay type: physicochemical; conditions: CD, PB pH 7.2, 10–50 mmol/L peptide, ambient temperature, 1-mm path length, 185–255 nm
Protocol: The staple peptides were soluble in PB with a pH of 7.2 at a concentration of 10–50 mmol/L. CD experiments were performed using a Jasco J-715 Spectropolarimeter at ambient temperature. A quartz cuvette with a 1-mm path length was used for the spectrum collection (wavelength, 185–255 nm; step resolution, 0.0001 mm; speed, 1.2 μm/h; accumulations, 6; and bandwidth, 0.0001 mm). We calculated the helicity of each peptide using Eq.

[7] = test system: HCT116 p53^+/+; conditions: 72 h

IC50 [1] [µM]	IC50 [4] [µM]	IC50 [5] [µM]	helicity [6] [%]	IC50 [7] [µM]	Compound	concentration at which in vitro anti-tumor activity was exhibited [1] [µM]	helicity [2] [%]	concentration at which in vitro anti-tumor activity was exhibited [3] [µM]	concentration at which in vitro anti-tumor activity was exhibited [4] [µM]	anti-proliferative / tumor suppressive activity (in words) ([3]; HCT116 p53^+/+, HCT116 p53−/−, U87 and U251 cell viability experiments, versus template straight-chain peptide)
47.5	93	25.8	38.10	15.6	CSCC[C@H](NC(=O)[C@H](CC(C)C)NC(=O)[C@H](CCC(N)=O)NC(=O)[C@]1(C)CCCC=CCCC[C@](C)(NC(=O)[C@H](Cc2ccccc2)NC(=O)[C@@H](NC(=O)[C@H](CC(C)C)NC(=O)[C@H](CCCCN)NC(C)=O)[C@@H](C)O)C(=O)N[C@@H](CCC(=O)O)C(=O)N[C@@H](Cc2ccc(O)cc2)C(=O)N[C@@H](Cc2c[nH]c3ccccc23)C(=O)N1)C(=O)N[C@@H](CCC(N)=O)C(=O)N[C@@H](CCCCN)C(N)=O [SM3-3] (Ac-KLTF[S5]EYW[S5]QLMQK-NH2; staple 5-9)	50	38.1	25	100	
31.2	35.9	27.4	42.85	27.3	CSCC[C@@H]1NC(=O)[C@H](CC(C)C)NC(=O)[C@H](CCC(N)=O)NC(=O)[C@@](C)(NC(=O)[C@H](Cc2c[nH]c3ccccc23)NC(=O)[C@H](Cc2ccc(O)cc2)NC(=O)[C@H](CCC(=O)O)NC(=O)[C@H](CC(C)C)NC(=O)[C@H](Cc2ccccc2)NC(=O)[C@@H](NC(=O)[C@H](CC(C)C)NC(=O)[C@H](CCCCN)NC(C)=O)[C@@H](C)O)CCCC=CCCC[C@@](C)(C(=O)N[C@@H](CCCCN)C(N)=O)NC1=O [SM3-5] (Ac-KLTFLEYW[S5]QLM[S5]K-NH2; staple 9-13)	25	42.9	25	50	significantly improved
19	22.6	54.8	42.36	118	CSCC[C@H](NC(=O)[C@H](CC(C)C)NC(=O)[C@H](CCC(N)=O)NC(=O)[C@H](C)NC(=O)[C@H](Cc1c[nH]c2ccccc12)NC(=O)[C@H](Cc1ccc(O)cc1)NC(=O)[C@]1(C)CCCC=CCCC[C@](C)(NC(=O)[C@H](CCCCN)NC(C)=O)C(=O)N[C@@H]([C@@H](C)O)C(=O)N[C@@H](Cc2ccccc2)C(=O)N[C@@H](CC(C)C)C(=O)N1)C(=O)N[C@@H](CCC(N)=O)C(=O)N[C@@H](CCCCN)C(N)=O [SM3-1] (Ac-K[S5]TFL[S5]YWAQLMQK-NH2; staple 2-6)	25	42.4	25	50	
